Experiments:
Format in all cases: in vivo, mouse
[1] = system: mice; assay: Acute toxicity test (single i.p. dose)
Method: To ensure that the safety of VK in vivo, acute toxicity test was performed. […] Clinical symptoms (temperature, change in skin, eye color change, general physique, body weight, diarrhea, sedation, and organ index) were recorded (Supplementary Table 3). […] Karyopyknosisa and the cellular swelling of the hepatocyte were moderate in the liver of mice treated with VK (96 and 384 mg/kg). […]
Acute toxicity test. Systemic acute toxicity test by peritoneal injection was performed according to the guideline provided by Center for Drug Evaluation and Research. In addition to the normal group, male mice were randomly divided into the treated groups received a single dose of 1.5 mg/kg, 6 mg/kg, 24 mg/kg, 96 mg/kg and 384 body weight of VK. Clinical signs of toxicity such as mortality, skin, eyes, fur, respiratory pattern , changes in general behavior and activity were individually observed. […]
day, the mice were anesthetized with 1.5% isoflurane in a mixture of 30% O2 and 69% N2O. Blood was collected from muse eyeballs and mixed with 3.2% sodium citrate at a v/v ratio of 1:9. Then, the blood was centrifuged at 3,000 rpm for 10 min.
The obtained plasma was analyzed using an automatic coagulation apparatus (CA1500).

[2] = system: MCAO/R mice; assay: Transmission electron microscopy of BBB
Method: Frontal cortex samples were isolated from mice with stroke and fixed in 2% glutaraldehyde and 4% paraformaldehyde in 0.1 M sodium cacodylate (pH 7.4), treated with 10% gelatin solution in sodium cacodylate buffer, and incubated with 2% osmium tetroxide. Sections were cut using a Leica EM TP ultramicrotome (Leica Microsystems) at 40 nm and placed within grids stained with a 1:1 mix of 3% uranyl acetate and 50% acetone for 30–60 s. Grids were imaged with a JEM 1400 transmission electron microscope (JEOL) at ×1200 for low magnification and ×12,000 for high magnification (unless otherwise noted) using Gatan Microscopy Suite software (Gatan).

[3] = system: IL-1β, TNF-α, IL-6, IL-8, IL-10 in serum; assay: Cytokine ELISA in serum; details: MCAO/R mice, 48 h
Method: Mice were decapitated under anesthesia at 48 h after MCAO/R. The IL-1β (Cat# 88-5019-88), TNF-α (Cat# 88-7324-22), IL-6 (Cat# 88-7064-88), and IL-8 (Cat# 88-8086-22) were purchased from Thermo Fisher Scientific. The levels of these proteins were measured by enzyme-linked immune sorbent assays (ELISA) kits, according to the manufacturer’s recommendations.

[4] = VK 1.5 mg/kg single i.p., n=5, 14 d observation
[5] = VK 6 mg/kg single i.p., n=6, 14 d observation
[6] = VK 24 mg/kg single i.p., n=6, 14 d observation
[7] = VK 96 mg/kg single i.p., n=6, 14 d observation
[8] = VK 384 mg/kg single i.p., n=6, 14 d observation

Gly-Arg-Pro-Hyp-Gly-Phe-Ser-Pro-Phe-Arg-Ile-Asp [VK, Vespakinin-M]
Body weight [1, 4]: Normal
Breathing difficulty [1, 4]: Normal
Change In skin [1, 4]: No effect
Coma [1, 4]: Normal
Death [1, 4]: Alive
Diarrhea [1, 4]: Normal
Drowsiness [1, 4]: Normal
Eye color change [1, 4]: No effect
Organ index [1, 4]: Normal
Sedation [1, 4]: Normal
Temperature [1, 4]: Normal
Tremor [1, 4]: Normal
Body weight [1, 5]: Normal
Breathing difficulty [1, 5]: Normal
Change In skin [1, 5]: No effect
Coma [1, 5]: Normal
Death [1, 5]: Alive
Diarrhea [1, 5]: Normal
Drowsiness [1, 5]: Normal
Eye color change [1, 5]: No effect
Organ index [1, 5]: Normal
Sedation [1, 5]: Normal
Temperature [1, 5]: Normal
Tremor [1, 5]: Normal
Body weight [1, 6]: Decline
Breathing difficulty [1, 6]: Normal
Change In skin [1, 6]: No effect
Coma [1, 6]: Normal
Death [1, 6]: Alive
Diarrhea [1, 6]: Normal
Drowsiness [1, 6]: Normal
Eye color change [1, 6]: No effect
Organ index [1, 6]: Normal
Sedation [1, 6]: Normal
Temperature [1, 6]: Normal
Tremor [1, 6]: Normal
Body weight [1, 7]: Decline
Breathing difficulty [1, 7]: Normal
Change In skin [1, 7]: No effect
Coma [1, 7]: Normal
Death [1, 7]: Alive
Diarrhea [1, 7]: Normal
Drowsiness [1, 7]: Normal
Eye color change [1, 7]: No effect
Organ index [1, 7]: Normal
Sedation [1, 7]: Normal
Temperature [1, 7]: Normal
Tremor [1, 7]: Normal
liver index ([1]; VK 384 mg/kg single i.p.): increased liver index
Body weight [1, 8]: Decline
Breathing difficulty [1, 8]: Normal
Change In skin [1, 8]: No effect
Coma [1, 8]: Normal
Death [1, 8]: Alive
Diarrhea [1, 8]: Normal
Drowsiness [1, 8]: Normal
Eye color change [1, 8]: No effect
Organ index [1, 8]: Increased
Sedation [1, 8]: Normal
Temperature [1, 8]: Normal
Tremor [1, 8]: Normal
Body weight ([1]; VK 24, 96 and 384 mg/kg single i.p.): continued to lose weight until day 5
index of brain, myocardium and kidney ([1]; all treatment dose groups (1.5-384 mg/kg single i.p.)): no difference
safe multiple of the effective dose (150 μg/kg) ([1]; mice): 640 times
safe doses of VK in acute toxicity tests ([1]; mice, single i.p. dose): < 96 mg/kg
mortality ([1]; single i.p. dose 1.5, 6, 24, 96 and 384 mg/kg, observed for 24 h): no mortality was observed
BBB integrity, TEM [2]: could maintain BBB integrity
IL-10 level in serum vs vehicle [3]: increase in IL-10 levels
IL-1β, TNF-α, IL-6 and IL-8 levels in the peripheral (serum) vs vehicle ([3]; VK 150 and 300 µg/kg): decreased IL-1β, TNF-α, IL-6, and IL-8 levels
